Laboratory results reported in patent US20110171193A1, “COMPOSITIONS AND METHODS FOR TREATING PULMONARY HYPERTENSION” (THE BOARD OF TRUSTEES OF THE UNIVERSITY OF ILLINOIS, priority 2008, published 2011).
Positions count from the first letter of the chain named. Entries after “also recorded” stand apart in the source; their conditions may differ. Each block holds one compound with its values, some of them ahead of it.

Experiments:
purified PKG-1 = target: T1, purified PKG-1 (Bos taurus, UniProt P00516); test: In vitro kinase assay of purified PKG-1 after peroxynitrite or DETA NONOate; type: biochemical; conditions: even at 100 μM, 30 min in dark at RT
T1 construct: purchased Promega
T1 sequence (P00516 1-671): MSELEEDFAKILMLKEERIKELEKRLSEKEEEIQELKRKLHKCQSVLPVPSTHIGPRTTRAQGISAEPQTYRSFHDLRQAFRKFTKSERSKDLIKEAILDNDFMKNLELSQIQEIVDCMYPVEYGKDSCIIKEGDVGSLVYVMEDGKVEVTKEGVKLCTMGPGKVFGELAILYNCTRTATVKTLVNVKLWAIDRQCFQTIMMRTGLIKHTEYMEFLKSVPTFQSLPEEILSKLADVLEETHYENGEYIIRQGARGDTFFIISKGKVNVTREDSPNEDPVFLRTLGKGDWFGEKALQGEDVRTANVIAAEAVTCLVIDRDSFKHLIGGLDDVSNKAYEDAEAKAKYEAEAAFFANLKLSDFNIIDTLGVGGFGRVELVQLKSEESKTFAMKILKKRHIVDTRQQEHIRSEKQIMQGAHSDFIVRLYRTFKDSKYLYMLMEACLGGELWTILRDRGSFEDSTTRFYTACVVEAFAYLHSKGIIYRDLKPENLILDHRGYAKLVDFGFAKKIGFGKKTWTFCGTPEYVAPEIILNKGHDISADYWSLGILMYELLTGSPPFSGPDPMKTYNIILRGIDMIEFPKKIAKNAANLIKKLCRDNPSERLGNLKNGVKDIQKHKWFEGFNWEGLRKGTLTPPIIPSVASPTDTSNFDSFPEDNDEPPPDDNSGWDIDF
Description: (§1) PKG Kinase Assay. In vitro activity of PKG was determined by measuring the transfer of the [g-^32P] phosphate group of ATP to the specific PKG substrate, BPDEtide (Calbiochem) in the absence or presence of exogenous 2.5 mM cGMP as described in Example 13. PKG activity is expressed as picmoles of ^32P incorporated into PKG substrate per min per microgram protein.
To address the role of peroxynitrite in the mechanism of the observed impairment of PKG activity, we treated human pulmonary artery smooth muscle cells with 3-morpholinosydnonimine (SIN-1), the superoxide and NO donor that forms peroxynitrite simultaneously (30). […] FIG. 9A relates to dose-dependent impairment of PKG activity by peroxynitrite. Purified […] (Promega) was incubated with peroxynitrite at indicated concentrations for 14 min at RT or with DETA NONOate (NONOate) for 30 min in dark at RT. Kinase activity was then assayed. Data is expressed mean+/−SD (n=3). *, P<0.05 versus control (0 μM). FIG. 9B relates to screening of PKG-1a mutants with in vitro kinase assay. At 48 hr post-transfection, myc-tagged WT and PKG-1a mutants were immunoprecipitated with anti-myc beads and aliquoted for incubation with either peroxynitrite (100 μM) or the same amount of 0.1 N NaOH only (CTL). […] PKG activity was expressed as pmoles/min/μg cell lysates. […] Data are expressed as mean±SD (n=3), *, P<0.05 versus either PKG-1a mutant. […]

PKG-I = target: T2, PKG-I (Homo sapiens, UniProt Q13976); test: PKG-I tyrosine nitration in human pulmonary artery smooth muscle cells after SIN-1 (IP / anti-nitrotyrosine Western blot); type: cell-based
T2 construct: primary cultures of human pulmonary artery smooth muscle cells were immunoprecipitated overnight with anti-PKG-I; endogenous in cells; host or cells: primary human pulmonary artery smooth muscle cells
T2 sequence (Q13976 1-671): T1 sequence (P00516 1-671) with K265T, N275S
Description: Western blot analyses were performed using anti-Cav1 (1:1000, Santa Cruz Biotechnology), anti-eNOS (1:1000, Upstate Biotechnology), and anti-PKG-I (1 mg/ml, a generous gift from Dr. X-P. Du at Department of Pharmacology, University of Illinois at Chicago). The same blots were reprobed with either anti-a-actin (1:400, Santa Cruz Biotechnology) or anti-GAPDH (1:2000, Santa Cruz Biotechnology) as a loading control. To detect PKG-I tyrosine nitration, protein lysates from either mouse lungs or primary cultures of human pulmonary artery smooth muscle cells were immunoprecipitated overnight with anti-PKG-I and then probed with anti-nitrotyrosine (1:2500, Cayman Chemical).
(§2) To test the hypothesis that peroxynitrite modifies PKG through tyrosine nitration thereby impairing kinase activity, we treated subconfluent human pulmonary artery smooth muscle cells with 3-morpholinosydnonimine (SIN-1), a donor of superoxide and NO, which spontaneously forms peroxynitrite at the two concentrations used. […] Each cell lysate (50 mg) was used for immunoprecipitation with an anti-PKG-I antibody and tyrosine nitration of PKG-I was detected by Western blot with anti-nitrotyrosine antibody (NT). Each lysate (15 mg) was used for direct immunoblotting with anti-PKG-I and anti-GAPDH, respectively. CTL, control. […] Data are shown as mean±SD (n=3). *, P<0.001 versus CTL; **, P<0.001 versus CTL.
Molecular Analysis. […]

PKG = target: T3, PKG (Homo sapiens, UniProt Q13976); test: PKG kinase activity in human pulmonary artery smooth muscle cells after SIN-1; type: cell-based
T3 construct: endogenous in cells; host or cells: primary human pulmonary artery smooth muscle cells
T3 sequence (Q13976 1-671): T1 sequence (P00516 1-671) with K265T, N275S
Description: In vitro activity of PKG was determined by measuring the transfer of the [g-32P] phosphate group of ATP to the specific PKG substrate, BPDEtide (Calbiochem) in the absence or presence of exogenous 2.5 mM cGMP. The assay was carried out in a total volume of […] containing 150 mM BPDEtide, 10 mM HEPES, 35 mM b-glycerophosphate, 4 mM magnesium acetate, 5 mM PKI (a synthetic protein kinase A inhibitor, Calbiochem), 0.5 mM EDTA, 200 mM ATP, and 2 mCi of [g-32P]ATP (specific activity 3,000 Ci/mmol, GE Amersham). The mixture was incubated at […] for 12 min and terminated by spotting […] aliquots of mixture on phosphocellulose papers (P81, Whatman). The papers were then washed and counted in a liquid scintillation counter. PKG activity is expressed as picmoles of 32P incorporated into PKG substrate per minute per milligram protein.
as §2, §1

Cav1−/− mice = test: RVSP in Cav1−/− mice with PH; type: in vivo, mouse; conditions: 8 month old Cav1−/− mice; 5 mg/kg, i.p. daily for 6 wk
Description: RVSP was determined as follows. Briefly, following anesthesia, mice were prepared for catheterization. A 1.4 F pressure transducer catheter (Millar Instruments) was carefully inserted via the right external jugular vein into the right ventricle to obtain measurements of RVSP using the Acknowledge software (Biopac Systems, Inc.). To determine lung vascular resistance, mice were anesthetized and prepared for perfusion. Pulmonary arterial (Ppa) and venous (Pv) pressures were monitored continuously through the pulmonary arterial and left atrial cannula, which were connected to a pressure transducer. […] Ppa was measured at steady-state and was plotted against the flow, which was measured by weighing the effluent collected over a one-minute period. […]
To determine whether pharmacological inhibition of eNOS in Cav1^−/− mice can reverse PH, we administered N-Nitro-L-Arginine Methyl Ester (L-NAME), a NOS inhibitor, to Cav1^−/− mice following onset of PH. […] Data are expressed as mean±SD (n=5-7). *, P=0.023 WT versus Cav1^−/−;**, P=0.015 Cav-L versus Cav1^−/−; #, P>0.5 Cav-D versus Cav1^−/−. […] Data are expressed as mean±SD (n=5-7). *, P=0.002 WT versus Cav1^−/−; **, P=0.013 Cav-L versus Cav1^−/−; #, P=0.8 Cav-D versus Cav1^−/−.
Hemodynamic Measurements. RVSP was determined with a 1.4 F pressure transducer catheter (Millar Instruments) and the Acknowledge software (Biopac Systems, Inc.). […]

PKG activity (purified PKG-1): failed to suppress PKG activity
Compound: NCCN(CCN)/[N+]([O-])=N/O [DETA NONOate]

PKG tyrosine nitration (PKG-I; SIN-1 at 0.1 mM): only minimal PKG tyrosine nitration
PKG kinase activity (PKG; SIN-1 at 0.1 mM): did not decrease PKG kinase activity
Compound: N=c1c[n+](N2CCOCC2)[n-]o1 [SIN-1, 3-morpholinosydnonimine]
PKG tyrosine nitration (PKG-I; SIN-1 concentration, 30 min): significant PKG tyrosine nitration; also recorded: marked PKG tyrosine nitration; also recorded: PKG1 tyrosine nitration
PKG kinase activity after addition of cGMP (PKG; SIN-1 30 min, after addition of 2.5 mM of cGMP): significant decrease of PKG activity; also recorded: significantly decreased PKG kinase activity; also recorded: impaired kinase activity
PKG kinase activity, basal (PKG; SIN-1 30 min, basal state): significant decrease of PKG activity; also recorded: significantly decreased PKG kinase activity; also recorded: impaired kinase activity

Compound: manganese (III) tetrakis (1-methyl-4-pyridyl) porphyrin pentachloride [MnTMPyP]
RVSP (Cav1−/− mice): reduced RVSP
